Experimental findings from PMC11243693, “Synthesis and Biological Evaluation of New Compounds with Nitroimidazole Moiety” (Molecules, 2024) are described below.

A word on the IC50: it is the concentration at which inhibition is half-maximal. A lower IC50 goes with inhibition by little substance. A word on the melting point: it is the temperature of the solid-liquid transition. What is called MBC is the lowest tested concentration that kills the bacteria rather than only halting them. High values mean weaker bactericidal potency, low ones greater bactericidal potency. By MIC is commonly meant the smallest concentration in the dilution series that meets the test's criterion for growth inhibition. Lower therefore signals greater potency. Broadly, the MFC is the lowest tested concentration that kills the fungus rather than only halting it. Read a high MFC as weaker fungicidal potency.

One data set concerns SW620 cells. Kind of data set: MTT assay, SW620 cells. It is filed as cell-based, human. The settings on record: SW-620; SW620 human metastatic colon cancer, MTT, 24 h, mean SD.
The next data set has as its system MDA-MB-231 cells. Kind of data set: MTT assay, MDA-MB-231 cells. It is filed as cell-based, human. How it is done: (§1) Colon cancer (SW480), breast adenocarcinoma (MDA-MB-231), lung carcinoma (A-549), prostate cancer (PC3), and immortal keratinocyte (HaCaT) cell lines of human origin were acquired from the American Type Culture Collection (ATCC). The recommended culture media and protocols provided by ATCC were as follows: SW480 were cultured in Minimum Essential Medium (MEM), MDA-MB-231, A-549, and HaCaT cells were cultured in Dulbecco’s Modified Eagle Medium (DMEM), while PC3 was cultured in Roswell Park Memorial Institute Medium (RPMI). The culture media were supplemented with 10% fetal bovine serum (FBS), penicillin (100 U/mL), and streptomycin (100 μg/mL). Cells were maintained in a humidified incubator at 37 °C with 5% CO2. Passaging was carried out upon reaching 80–90% confluence using 0.25% trypsin (Gibco Life Technologies, New York, NY, USA) treatment prior to experimentation.
(§2) Cell viability was assessed utilizing the MTT assay, which relies on the conversion of 3-(4,5-dimethylthiazol-2-yl)-2,5-diphenyltetrazolium bromide salt (MTT) to formazan crystals by mitochondrial dehydrogenases in viable cells. Initially, cells were plated in 96-well plates at a density of 1 × 10^4 cells per well and allowed to attach for 24 h at 37 °C in a CO2 incubator. Subsequently, the culture medium was replaced with fresh medium containing various concentrations of the test compounds (ranging from 1 to 100 μM), and cells were further cultured for 24 h at 37 °C in a CO2 incubator. Control wells were left untreated for comparison. After the incubation period, MTT solution (0.5 mg/mL in serum-free medium) was added to each well, followed by a 4-h incubation at 37 °C in a CO2 incubator. The medium was then aspirated, and the formazan crystals were dissolved by adding a mixture of isopropanol and DMSO (1:1). The absorbance of the resulting solution was measured at 570 nm using a UVM 340 reader (ASYS Hitech GmbH, Seekirchen am Wallersee, Austria). IC50 values were determined using GraphPad software (GraphPad Prism 8 Software).
For orientation: Tetrazolium dyes change colour on reduction, which living cells bring about.

For a further data set, the system named is A-549 cells. The data set can be described thus: MTT assay, A-549 cells. It is filed as cell-based, human. How it is done: as §1, §2
The test system of another data set is PC3 cells. Kind of data set: MTT assay, PC3 cells. The settings on record: PC-3; PC3 human metastatic prostate cancer, MTT, 24 h, mean SD. It is filed as cell-based, human. The procedure: as §1, §2
A further data set concerns HaCaT cells. The data set can be described thus: MTT assay, HaCaT normal cells. It is filed as cell-based. Particulars: HaCaT human immortal keratinocyte (normal cells), 24 h, mean SD. The procedure:
as §1, §2

The test system of data set [1] is Staphylococcus aureus ATCC 25923. The data set can be described thus: Broth microdilution, S. aureus ATCC 25923. It is filed as cell-based. The settings on record: Staphylococcus aureus, ATCC25923. The method in brief: (§3)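 Compounds are diluted twofold, starting at 1000 µg/mL, in Mueller-Hinton medium, supplemented with 2% glucose for the yeast strains. Wells then receive a tenfold-diluted 0.5 McFarland inoculum and incubate 18 ± 2 h at 35 ± 2 °C. Absorbance at 570 nm gives the MIC.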
A general note: In broth dilution the organism is exposed to a series of concentrations in liquid medium.

The test system of data set [2] is Staphylococcus aureus ATCC 6538. The data set can be described thus: Broth microdilution, S. aureus ATCC 6538. The settings on record: Staphylococcus aureus, ATCC6538. It is filed as cell-based. In outline: (§4)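 EUCAST broth microdilution: inoculum 0.5 McFarland, 10-fold diluted; Mueller-Hinton broth (bacteria) or MH + 2% glucose (yeast); twofold dilutions from 1000 µg/mL; 18 ± 2 h at 35 ± 2 °C, A570 read for MIC. MBC/MFC from subculture on MHA or MHA + 2% glc (99.9% kill).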

Data set [3] concerns Staphylococcus aureus ATCC 43300 methicillin-resistant MRSA. Kind of data set: Broth microdilution, S. aureus ATCC 43300 MRSA. Particulars: Staphylococcus aureus. It is filed as cell-based. In outline: as §3
Data set [4] relates to Staphylococcus epidermidis ATCC 12228. The data set can be described thus: Broth microdilution, S. epidermidis ATCC 12228. The settings on record: Staphylococcus epidermidis, ATCC12228. It is filed as cell-based. In outline: as §3
Data set [5] relates to Micrococcus luteus ATCC 10240. Kind of data set: Broth microdilution, M. luteus ATCC 10240. It is filed as cell-based. In outline: as §3
Data set [6] concerns Bacillus subtilis ATCC 6633. The data set can be described thus: Broth microdilution, B. subtilis ATCC 6633. It is filed as cell-based. The method in brief: as §3
The test system of data set [7] is Bacillus cereus ATCC 10876. The data set can be described thus: Broth microdilution, B. cereus ATCC 10876. It is filed as cell-based. In outline:
as §4

In data set [8] the test system is Candida parapsilosis ATCC 22019. The data set can be described thus: Broth microdilution, C. parapsilosis ATCC 22019. It is filed as cell-based. The settings on record: Lodderomyces parapsilosis, ATCC22019. In outline: as §4
The test system of data set [9] is Candida glabrata ATCC 90030. Kind of data set: Broth microdilution, C. glabrata ATCC 90030. It is filed as cell-based. The settings on record: Nakaseomyces glabratus, ATCC90030. The method in brief:
as §4

Data set [10] concerns Candida krusei ATCC 14243. The data set can be described thus: Broth microdilution, C. krusei ATCC 14243. It is filed as cell-based. The settings on record: Pichia kudriavzevii, ATCC14243. In outline:
as §4

Data set [11] relates to Candida glabrata ATCC 15126. Kind of data set: Broth microdilution, C. glabrata ATCC 15126. It is filed as cell-based. Particulars: Nakaseomyces glabratus, ATCC15126. In outline:
as §4

Data set [12] concerns Candida tropicalis ATCC 1369. Kind of data set: Broth microdilution, C. tropicalis ATCC 1369. It is filed as cell-based. Particulars: Candida tropicalis, ATCC1369. In outline: as §4
In a further data set the test system is Candida auris CDC B11903. Kind of data set: Broth microdilution, C. auris CDC B11903. It is filed as cell-based. Particulars: Candidozyma auris, CDCB11903. In outline:
as §4

Data set [13] relates to Candida lusitaniae ATCC 3449. The data set can be described thus: Broth microdilution, C. lusitaniae ATCC 3449. It is filed as cell-based. Particulars: Clavispora lusitaniae, ATCC3449. In outline: as §4
In another data set the test system is Gram-positive bacteria. Kind of data set: Broth microdilution, Gram-positive bacteria. It is filed as cell-based. The settings on record: strains as named in the sentence. How it is done: The antibacterial activity of the obtained thiosemicarbazides and hydrazide–hydrazones was determined by evaluating their ability to inhibit microbial growth in vitro using the broth microdilution method, according to the guidelines of the European Committee on Antimicrobial Susceptibility Testing (EUCAST). The method involved the preparation of microbial suspensions with a standardized density of 0.5 on the McFarland scale (equivalent to 1.5 × 10^8 colony-forming units/mL for bacteria and […] for fungi). A solution of the test substances was then prepared (initial concentration 1000 µg/mL, diluted in sterile Mueller-Hinton broth for bacteria or Mueller-Hinton with 2% glucose for fungi). The test was carried out in 96-well polystyrene flat-bottom plates (Medlab, Poland) with 100 µL of appropriate sterile microbiological medium in each well. […] After incubation, the spectrophotometric absorbance at 570 nm in each well of the plate was read. […] The MBC value was determined by adding 5 µL of the contents of each well of the plate to solid sterile MHA or MHA + 2%glc medium for bacteria and fungi, respectively. […] In addition, the quotient MBC(MFC)/MIC could be determined to assess the nature of the activity of the test substance. […]

Values after ≈ are worked out from the molar mass of the structure shown.

Consider `COc1ccc(O)c(C=NNC(=O)c2nc([N+](=O)[O-])cn2C)c1` [Compound 31, N’-[(2-hydroxy-5-methoxyphenyl)methylidene]-1-methyl-4-nitro-1H-imidazole-2-carbohydrazide], for which the melting point was 236 to 238 °C. The same molecule displayed a half-maximal inhibitory concentration (IC50) in the data set on SW620 cells of 86.3 ± 3.81 µM. In addition, the “SI (Selectivity Index)” value in the data set on MDA-MB-231 cells (IC50 for normal cell line (HaCaT)/IC50 MDA-MB-231) is 1. The same molecule came in with a half-maximal inhibitory concentration (IC50) in the data set with MDA-MB-231 cells (MDA-MB-231 human breast adenocarcinoma, MTT, 24 h, mean SD) greater than 100 µM. In the data set with A-549 cells (A549, A-549 human lung carcinoma, MTT, 24 h, mean SD), this molecule yielded an IC50 greater than 100 µM. Also, the “SI (Selectivity Index)” value with A-549 cells (IC50 for normal cell line (HaCaT)/IC50 A-549) is on record as 1. Further, the midpoint of inhibition in the data set with PC3 cells, the IC50, lay at 70.4 ± 2.76 µM. For the same molecule, the IC50 with HaCaT cells is greater than 100 µM.
For the molecule `Cn1cc([N+](=O)[O-])nc1C(=O)NNC(=S)Nc1ccc([N+](=O)[O-])cc1` [Compound 18, 1-[(1-methyl-4-nitroimidazol-2-yl)carbonyl]-4-(4-nitrophenyl)-thiosemicarbazide], the MBC was greater than 1000 µg/mL in data set [1]; greater than 1000 µg/mL in data set [4]; 1000 µg/mL (≈ 2740 µM) in data set [5] (Micrococcus luteus, ATCC10240); 1000 µg/mL (≈ 2740 µM) in data set [6] (Bacillus subtilis, ATCC6633); 1000 µg/mL (≈ 2740 µM) in data set [7] (Bacillus cereus, ATCC10876). Besides, the MIC in [1] was 500 µg/mL (≈ 1370 µM); in [2], greater than 1000 µg/mL; in data set [3], greater than 1000 µg/mL; in data set [4] it was 1000 µg/mL (≈ 2740 µM); in data set [5] (Micrococcus luteus, ATCC10240), 500 µg/mL (≈ 1370 µM); in data set [6] (Bacillus subtilis, ATCC6633), 1000 µg/mL (≈ 2740 µM). Besides, the minimum inhibitory concentration (MIC) in [7] (Bacillus cereus, ATCC10876) is 1000 µg/mL (≈ 2740 µM); in data set [8], greater than 1000 µg/mL; in [9] it was greater than 1000 µg/mL; in [10], greater than 1000 µg/mL; in data set [11], greater than 1000 µg/mL; in [12] it was 500 µg/mL (≈ 1370 µM). Moreover, the minimum inhibitory concentration (MIC) (against Candida auris CDC B11903; in [13]) was greater than 1000 µg/mL throughout. Moreover, the “MBC/MIC Ratio” value in [5] (Ml 10240, <4 bactericidal, ≥4 bacteriostatic) was determined as 2; in [6] (Bs 6633, <4 bactericidal, ≥4 bacteriostatic) it was 1; in data set [7] (Bc 10876, <4 bactericidal, ≥4 bacteriostatic), 1. In addition, the minimum fungicidal concentration (MFC) in data set [12] was greater than 1000 µg/mL. Besides, the “MIC (range or value for several Gram-positive strains)” value against Gram-positive bacteria is 500 to 1000 µg/mL.
